# Results: publication PMC11396129, “Oxindole–benzothiazole hybrids as CDK2 inhibitors and anticancer agents: design, synthesis and biological evaluation” (BMC Chemistry, 2024)
# Experiments:
# Type in all cases: cell-based, human
# LOX IMVI = experiment: NCI 60 panel growth inhibition (SRB), melanoma; settings: 10 μM
# How it was run: (§1)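 Selected compounds progressed from a single-dose mean-graph screen to five-concentration testing. Percentage growth, with negative values indicating cell kill below Tz, was computed per level, giving TGI among three parameters.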
# UACC-62 = experiment: NCI 60 panel growth inhibition (SRB), melanoma; settings: UACC-62, 10 μM
# How it was run: as §1
# SK-MEL-5 = experiment: NCI 60 panel growth inhibition (SRB), melanoma; settings: SK-MEL-5, 10 μM
# How it was run: as §1
# M14 = experiment: NCI 60 panel growth inhibition (SRB), melanoma; settings: M14, 10 μM
# How it was run: as §1
# SK-MEL-28 = experiment: NCI 60 panel growth inhibition (SRB), melanoma; settings: SK-MEL-28, 10 μM
# How it was run: as §1
# MDA-MB-435 = experiment: NCI 60 panel growth inhibition (SRB), melanoma; settings: MDA-MB-435, 10 μM
# How it was run: as §1
# MALME-3M = experiment: NCI 60 panel growth inhibition (SRB), melanoma; settings: 10 μM
# How it was run: as §1
# UACC-257 = experiment: NCI 60 panel growth inhibition (SRB), melanoma; settings: UACC-257, 10 μM
# How it was run: as §1
# KM12 = experiment: NCI 60 panel growth inhibition (SRB), colon cancer; settings: KM12, 10 μM
# How it was run: as §1
# SW-620 = experiment: NCI 60 panel growth inhibition (SRB), colon cancer; settings: SW-620, 10 μM
# How it was run: as §1
# HCT-15 = experiment: NCI 60 panel growth inhibition (SRB), colon cancer; settings: HCT-15, 10 μM
# How it was run: as §1
# COLO 205 = experiment: NCI 60 panel growth inhibition (SRB), colon cancer; settings: COLO 205, 10 μM
# How it was run: as §1
# HCT-116 = experiment: NCI 60 panel growth inhibition (SRB), colon cancer; settings: HCT-116, 10 μM
# How it was run: as §1
# HCC-2998 = experiment: NCI 60 panel growth inhibition (SRB), colon cancer; settings: HCC-2998, 10 μM
# How it was run: as §1
# EKVX = experiment: NCI 60 panel growth inhibition (SRB), non-small cell lung cancer; settings: 10 μM
# How it was run: as §1
# HOP-92 = experiment: as above; settings: HOP-92, 10 μM
# How it was run: as §1
# NCI-H522 = experiment: as above; settings: NCI-H522, 10 μM
# How it was run: as §1
# A549/ATCC = experiment: as above; settings: 10 μM
# How it was run: as §1
# HOP-62 = experiment: as above; settings: HOP-62, 10 μM
# How it was run: as §1
# NCI-H226 = experiment: as above; settings: NCI-H226, 10 μM
# How it was run: as §1
# NCI-H322M = experiment: as above; settings: 10 μM
# How it was run: as §1
# NCI-H460 = experiment: as above; settings: NCI-H460, 10 μM
# How it was run: as §1
# NCI-H23 = experiment: as above; settings: NCI-H23, 10 μM
# How it was run: as §1
# PC-3 = experiment: NCI 60 panel growth inhibition (SRB), prostate cancer; settings: PC-3, 10 μM
# How it was run: as §1
# DU-145 = experiment: as above; settings: DU-145, 10 μM
# How it was run: as §1
# BT-549 = experiment: NCI 60 panel growth inhibition (SRB), breast cancer; settings: BT-549, 10 μM
# How it was run: as §1
# MDA-MB-468 = experiment: as above; settings: MDA-MB-468, 10 μM
# How it was run: as §1
# HS 578T = experiment: as above; settings: 10 μM
# How it was run: as §1
# MDA-MB-231/ATCC = experiment: as above; settings: 10 μM
# How it was run: as §1
# MCF7 = experiment: as above; settings: MCF7, 10 μM
# How it was run: as §1
# T-47D = experiment: as above; settings: 10 μM
# How it was run: as §1
# CAKI-1 = experiment: NCI 60 panel growth inhibition (SRB), renal cancer; settings: CAKI-1, 10 μM
# How it was run: as §1
# SN12C = experiment: NCI 60 panel growth inhibition (SRB), renal cancer; settings: 10 μM
# How it was run: as §1
# ACHN = experiment: NCI 60 panel growth inhibition (SRB), renal cancer; settings: 10 μM
# How it was run: as §1
# A498 = experiment: NCI 60 panel growth inhibition (SRB), renal cancer; settings: A498, 10 μM
# How it was run: as §1
smiles,measurement,setting,value
"O=C(COc1ccccc1-c1nc2ccccc2s1)NN=C1C(=O)Nc2ccc(Br)cc21 [Compound 9f, 2-(2-(Benzo[d]thiazol-2-yl)phenoxy)-N′-(5-bromo-2-oxoindolin-3-ylidene)acetohydrazide]",GI%,LOX IMVI,59.05%
same,GI%,UACC-62,25.55%
same,GI%,SK-MEL-5,43.95%
same,GI%,M14,8.00%
same,GI%,SK-MEL-28,– (GI% < 5%)
same,GI%,MDA-MB-435,14.63%
same,GI%,MALME-3M,55.98%
same,GI%,UACC-257,13.04%
same,GI%,KM12,15.34%
same,GI%,SW-620,– (GI% < 5%)
same,GI%,HCT-15,17.46%
same,GI%,COLO 205,– (GI% < 5%)
same,GI%,HCT-116,53.40%
same,GI%,HCC-2998,11.62%
same,GI%,EKVX,19.72%
same,GI%,HOP-92,51.76%
same,GI%,NCI-H522,51.70%
same,GI%,A549/ATCC,29.34%
same,GI%,HOP-62,74.09%
same,GI%,NCI-H226,106.99%
same,GI%,NCI-H322M,17.70%
same,GI%,NCI-H460,18.32%
same,GI%,NCI-H23,40.56%
same,GI%,PC-3,27.83%
same,GI%,DU-145,14.27%
same,GI%,BT-549,86.84%
same,GI%,MDA-MB-468,63.10%
same,GI%,HS 578T,75.23%
same,GI%,MDA-MB-231/ATCC,55.33%
same,GI%,MCF7,55.39%
same,GI%,T-47D,60.76%
same,GI%,CAKI-1,51.85%
same,GI%,SN12C,67.11%
same,GI%,ACHN,64.71%
same,GI%,A498,12.61%
